Series [1] relates to oral and oropharyngeal squamous cell carcinoma (OSCC, OPSCC). Description: Intraoperative near-infrared optical imaging: tumor-to-background ratio and absolute intensities (Elevision). It counts as in vivo, human. The conditions noted are these: for TBR (mean (range)): preoperative NIR image, max tumor ROI / mean of 3 background ROIs, Elevision, 805 nm. Here is the method: All patients were treated surgically according to the national guidelines. The primary investigator (PI) was part of the surgical team in all procedures. A surgical robot system (DaVinci Si, Intuitive) was used for TORS in the two patients with OPSCC. The surgeons were not allowed to resect tissue based on intraoperative detected fluorescence signal but complied with standard of care. Depending on the clinical TNM staging (based on clinical examination, ultrasonography examination of the neck, and MRI or CT scans), either sentinel lymph node biopsy (using 99^mTc-nanocoll) or neck dissection was performed for neck management. Post-surgical (chemo)radiation was prescribed according to national guidelines at a multidisciplinary conference. The pre-, intraoperative, and ex-vivo optical images were obtained using the open-field imaging system Elevision® model VS3 Iridium-Visionsense Infrared (IR) Fluorescence, Vision System (Medtronics, USA). Image profile: NIR_highcontrast or NIR_contrast, excitation laser: 805 nm. The Elevision IR system generates real-time optical imaging merged with the color video recording on a viewer screen. The intensity-dependent multi-color NIR overlay was presented in parallel with white-light and NIR grayscale images. The camera head was mounted on a maneuverable arm over the surgical field with sterile draping. The preferred camera-to-tumor distance was 20-40 centimeters, but the system also allows positioning at closer or longer distances to areas of interest. For optimal imaging, all other light sources in the OR were switched off and window blinds were closed. The imaging system itself provides powerful white light illumination of the surgical field when imaging is performed.
All images and videos were stored in JPG- and mp4-file format. The following images were captured for all 16 patients who completed the trial: 1) Preoperative images of the tumor. 2) Intraoperative images of the tumor and metastatic lymph nodes. 3) Images of the surgical cavity (i.e., tumor bed) after tumor resection. 4) Ex-vivo images of the resected tumor specimen on the back-table, see Figure 2.
For imaging analysis, the TBR was calculated as the maximum fluorescence intensity of the tumor region of interest (ROI) divided by the mean fluorescence intensity of 3 background ROIs on a preoperative NIR image by use of an in-house designed Python-based annotation tool. The tumor ROIs were drawn based on information from intraoperative clinical observations, and preoperative white-light and NIR images. Background ROIs were defined within the soft tissues adjacent to the tumor. The absolute numeric intensities were obtained by adjusting the fluorescence intensity for the specific gain values applied by the imaging system.

The conditions of series [2]: 40 patients with malignant glioblastoma, 1 to 48 mg; ref [15],[33]; cited from earlier work.
Series [3] relates to oral and oropharyngeal squamous cell carcinoma (OSCC, OPSCC). Description: Longitudinal preoperative transoral imaging of the tumors. In kind it is in vivo, human. The protocol: For 3 out of the 16 patients, longitudinal preoperative imaging of their tumors was captured during the period before surgery. […] Minor deviations from the protocol requirements were due to prioritization of the patients' night sleep before surgery - therefore, no images were taken in the timespan between 8 and 14 hrs post-injection. All longitudinal images were captured with the same camera-to-tumor distance (app. 25-35 cm) in a darkened room. The TBR value was calculated for all time points and plotted as a function of time, see Figure 4 for a case example.

Marks after values point to notes of the source that are not given here. Non-standard residues stand in square brackets, D forms with d. Residues, ends and D or L forms follow the SMILES beside them. *: point of attachment. X1 = CC1(C)C(=CC=CC=CC=CC2=[N+](CCCCCC(=O)*)c3ccc4ccccc4c3C2(C)C)N(CCCCS(=O)(=O)[O-])c2ccc3ccccc3c21; Cha = N[C@@H](CC1CCCCC1)C(=O)O

Turning to `CC(C)C[C@H](NC(=O)[C@H](Cc1ccc(O)cc1)NC(=O)[C@@H](CCCNC(=N)N)NC(=O)[C@@H](CO)NC(=O)[C@H](Cc1ccccc1)NC(=O)[C@H](CC1CCCCC1)NC(=O)[C@H](CC(=O)O)NC(=O)[C@H](CCC(=O)O)NC(=O)[C@H](CCC(=O)O)NC(=O)CCCCC[N+]1=C(C=CC=CC=CC=C2N(CCCCS(=O)(=O)[O-])c3ccc4ccccc4c3C2(C)C)C(C)(C)c2c1ccc1ccccc21)C(=O)N[C@@H](Cc1c[nH]c2ccccc12)C(=O)N[C@@H](CO)C(=O)O` [FG001, ICG-Glu-Glu-AE105] (X1-EED[Cha]F[dS][dR]YLWS-OH; N-terminus and C-terminus assumed), the “TBR (mean (range))” value in series [1] (FG001 4 mg i.v., n = 4 completed) is 3.07 (2.30 - 3.48)*. For the same compound, in series [1] (FG001 16 mg i.v., n = 8), the “TBR (mean (range))” value is 2.91 (2.02 - 3.95). In addition, the “TBR (mean (range))” value in series [1] (FG001 36 mg i.v., n = 4) is given as 3.08 (2.68 - 3.46). In series [1] (all patients, even at the lowest dose), the “TBR (contrast for demarcation of tumors), consistently” value is reported as “above 2”. For the same compound, in series [2], the “Grade I drug-related adverse events, number” value was 3; the “Grade II drug-related adverse events, number” value was 1; the Safety and tolerability entry is “safe and well-tolerated”. Also, the “Time post-injection after which tumor-specific signals could be detected” value in series [3] (FG001 16 mg i.v., three awake patients, transoral) came out at 2 h. In addition, in series [3] (FG001 16 mg i.v., three awake patients, transoral, from 2 hrs until 19 hrs post-injection), the “TBR in longitudinal imaging” value is “above 2”. Moreover, in series [3] (indicated by the longitudinal data for tumor imaging), the “Window for drug administration prior to surgery” value was 2 to 19 h.

These data come from publication PMC11667226 (Theranostics, 2025).
